Data published in US8497352B2, “Use of Wnt5-α peptide derivates for the treatment of melanoma and gastric cancer” (Wntresearch AB, priority 2008, dated 2013).
Where no end group is shown, it is not given here. The star is where a group is joined. For = O=C*

Columns and labels:
breast cancer cell = details: breast tumor cells lacking endogenous Wnt-5a; cited from earlier work
A2058 melanoma cells = test: Wound-healing assay (migration), A2058 cells; format: cell-based, human; details: 50 μM Foxy5, 0, 16, 24, 40 and 48 hours
Method: (§1) Cells were plated in 12 well plates and allowed to grow into a confluent layer in complete RPMI (for A2058 cells) or complete McCoy's 5A medium (for HTB63 cells). As indicated, cells were pre-incubated with the Box5 peptide (100 μM) or control solvent for 40 min with continuous agitation. A wound was then inflicted by making a scratch through the confluent layer of cells with a pipette tip. During the migration period of the assay, cells were incubated either in serum-free medium or in the case of HTB63 cells in their own serum-free-conditioned medium collected from cells cultured for 48 h and used within 2 days after collection. The exact conditions of each experiment are described above. To avoid loss of activity, cell medium was changed after 24 hours. A picture for each scratch was taken in the same area of cells at 0, 16, 24, 40 and 48 hours, and wound healing was measured as percentage of wound area closed. For each experimental condition wound healing was analysed in triplicate. All data were based on 3 to 8 separate experiments as indicated.

breast cancer metastasis = details: mouse model; cited from earlier work
HTB63 melanoma cells [1] = test: Wound-healing assay (migration), HTB63 cells; format: cell-based, human; details: 10 μM SB431542, serum-free medium
Method: as §1

HTB63 melanoma cells [2] = test: BD Matrigel invasion chamber assay, HTB63 cells; format: cell-based, human; details: 10 μM SB431542, 24 hours
Method: Cell invasion was analyzed using the BD Matrigel™ invasion chamber assay (BD Biosciences, Bedford, Mass.). Prior to the initiation of each experiment, the cells were detached with Versene and re-suspended as single cells in serum-free RPMI medium. As indicated, cells were pre-incubated with the Box5 peptide (100 μM) or control solvent for 40 min with continuous agitation. An aliquot of the cell suspension containing 25,000 cells and 100 μM Box5 or control solvent was then added to the upper transwell chamber, and the lower chamber was filled with serum-containing (10%) medium. The invasion chambers were shaken horizontally for 5 min to ensure even distribution of the cells in suspension and subsequently across the membrane surface. The cells were allowed to invade for the periods of time indicated at 37° C. in a humidified atmosphere of 5% CO2. The medium was discarded and cells were fixed in 4% paraformaldehyde for 10 min. The cells were stained with 0.5% crystal violet in 20% methanol for 10 min and the non-invading cells on the inner side of the membrane were removed with a cotton-tipped applicator. The membrane was cut out of the chamber using a scalpel blade and the stained cells on the lower chamber side of the membrane were counted.

[3] = tested on: Wnt-5a protein expression; test: Wnt-5a protein expression in HTB63 cells, Western blot; format: cell-based, human
Method: The cells were either directly lysed in 1× Laemmli buffer containing DTT and boiled for 10 min, or lysed in buffer containing 50 mM Tris-HCl (pH 7.5), 1% Triton X-100, 100 mM NaCl, 10 mM MgCl2, 20% glycerol, 1 mM Na3VO4, and protease inhibitors (20 μg/ml aprotinin, 1 μg/ml leupeptin, 2.5 mM benzamidine, and 2 mM pefabloc). Cell treated with lysis buffer were centrifuged at 15,000 rpm for 5 min at 4° C. The protein content in each sample was determined and adjusted to ensure equal loading of protein in each lane. Thereafter, 50 mM DTT and 5× concentrated Laemmli buffer was added and the samples boiled for 5 min. The samples were separated by SDS polyacrylamide gel electrophoresis and subsequently transferred to PVDF membranes. For immunoblotting the membranes were blocked in PBS supplemented with 0.2% Tween 20 and 1% non-fat milk for Wnt-5a or 3% non-fat milk as for all other antibodies for 1 h. Thereafter the membranes were incubated for 1 h at room temperature or overnight at 4° C. with the indicated primary Ab (1:25,000 for β-actin; 1:1,000 for Wnt-5a and 1:1,000 for TGF-β1) in 2% non-fat milk or 1.5% BSA. After extensive washing in PBS with 0.2% Tween, the membranes were incubated for 1 h with a horseradish peroxidase-conjugated secondary Ab in 2% non-fat milk or 1.5% BSA and again extensively washed. Finally, the Ab-antigen complexes were detected using enhanced chemiluminescence. […]

| Molecule | Signaling and inhibition of breast cancer cell migration (breast cancer cell) | Effect on migration of A2058 cells (A2058 melanoma cells) | Breast cancer metastasis (breast cancer metastasis) | Effect on migration of HTB63 cells (HTB63 melanoma cells [1]) | Effect on migration of HTB63 cells in the invasion assay (HTB63 melanoma cells [2]) | Endogenous Wnt-5a protein expression in HTB63 cells ([3]; 10 μM SB431542, 4 days) | Endogenous Wnt-5a protein expression in HTB63 cells ([3]; 10 μM SB431542, 5 days) |
| --- | --- | --- | --- | --- | --- | --- | --- |
| Foxy5: Met-Asp-Gly-Cys-Glu-Leu hexapeptide formylated at the N-terminal Met, agonist of Wnt-5a signalling (For-MDGCEL) | mimic the effects of Wnt-5a | promotes | inhibits | – | – | – | – |
| NC(=O)c1ccc(-c2nc(-c3ccc4c(c3)OCO4)c(-c3ccccn3)[nH]2)cc1 [SB431542] | – | – | – | inhibited | stimulated | significantly reduced | almost abolished |
